Activity calls are given as the source filed them.
Legend:
H9c2 = assay: cells; type: functional, cell-based; conditions: Rattus norvegicus, H9c2, Myocardium;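 further: confirmatory concentration-response retest of ultra-high-throughput screening hits for modulation of myocardial damage; cell death induced by hydrogen peroxide oxidative stress; compound pretreatment for 60 min then peroxide exposure for 2 h; potency is for protecting the cells against peroxide damage rather than for killing them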
[1] = target: T1, Endoribonuclease toxin MazF (Escherichia coli K-12, UniProt P0AE70); assay: fluorescent RNA oligo signal without MazF, dose response, counter-screen for MazEF activator project, biochemical, fluorescence, single-stranded RNase substrate (AID 588502); type: functional
T1 sequence (P0AE70 whole entry): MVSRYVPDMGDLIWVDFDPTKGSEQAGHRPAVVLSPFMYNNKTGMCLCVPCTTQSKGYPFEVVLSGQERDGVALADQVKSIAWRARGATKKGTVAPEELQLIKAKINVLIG

[2] = target: T1, Endoribonuclease toxin MazF; assay: MazF toxin RNase activators, dose response, biochemical, fluorescence, single-stranded RNA substrate, uHTS hits (AID 588481); type: functional
[3] = HepG2 cell cytotoxicity, dose response, cytotoxicity control, plate reader, dry powder samples (AID 1159569); type: functional, cell-based;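 further: inhibitor potency with signal falling toward the positive control level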
[4] = P. falciparum Dd2 growth inhibitors, dose response, SYBR Green, cherry-picked samples (AID 1159567); type: functional, cell-based
[5] = P. falciparum Dd2 growth inhibitors, dose response, SYBR Green, dry powder samples (AID 1159566); type: functional, cell-based;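 further: potency for growth inhibition with lower SYBR green DNA signal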
[6] = P. falciparum ATP4 D1247Y mutant growth inhibitors, dose response, NITD609-resistant line, SYBR Green, dry powder (AID 1159571); type: functional, cell-based;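 further: parasites synchronized at ring stage by sorbitol before testing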
[7] = P. falciparum 3D7-ScDHODH growth inhibitors, dose response, SYBR Green, dry powder samples (AID 1159570); type: functional, cell-based;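 further: parasite growth measured after 72 hours of compound exposure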
Steroidogenic factor 1 = Steroidogenic factor 1 (Homo sapiens, UniProt Q13285); assay: Counterscreen for inverse agonists of the liver receptor homolog-1 (LRH-1; NR5A2): Luminescence-based cell-based high throughput dose response assay to identify inverse agonists of the Steroidogenic Factor 1 Nuclear Receptor (SF1; NR5A1).; type: functional
[8] = target: Nuclear receptor subfamily 5 group A member 2 (Homo sapiens, UniProt O00482); type: functional, cell-based;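 further: HEK293T cells transfected with LRH-1 and a StAR promoter luciferase reporter; potency for inhibitors that lower LRH-1 driven reporter light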
[9] = StAR promoter reporter inhibition counter-screen, dose response, counter-screen for LRH-1 inverse agonist project, cell-based, luminescence, luciferase reporter (AID 651969); type: functional
[10] = target: Luciferin 4-monooxygenase (Photinus pyralis, UniProt P08659); assay: firefly luciferase enzyme inhibitors, dose response, biochemical, luminescence (AID 1891)
[11] = Luminescence Cell-Based Dose Confirmation HTS to Identify Inhibitors of Platelet Dense Granule Release. [Related pubchem assays: 1663 (Primary HTS), 1678 (Summary of Project)]; type: functional
[12] = target: T2, DNA repair protein RAD52 homolog (Homo sapiens, UniProt P43351); type: functional, biochemical
T2 sequence (P43351 whole entry): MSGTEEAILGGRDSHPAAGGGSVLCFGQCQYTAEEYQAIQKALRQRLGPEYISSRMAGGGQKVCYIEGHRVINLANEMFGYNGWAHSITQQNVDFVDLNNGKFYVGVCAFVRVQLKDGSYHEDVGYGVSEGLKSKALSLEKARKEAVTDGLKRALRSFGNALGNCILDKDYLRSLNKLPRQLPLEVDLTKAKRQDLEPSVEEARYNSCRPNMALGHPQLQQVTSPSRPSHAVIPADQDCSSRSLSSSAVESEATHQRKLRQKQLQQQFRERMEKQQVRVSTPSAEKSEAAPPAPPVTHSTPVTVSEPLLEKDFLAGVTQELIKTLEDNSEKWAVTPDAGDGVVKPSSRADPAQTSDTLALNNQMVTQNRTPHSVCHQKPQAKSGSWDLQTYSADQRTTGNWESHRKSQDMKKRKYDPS

[13] = target: T3, High affinity choline transporter 1 (Homo sapiens, UniProt Q9GZV3); assay: CHT inhibitors, dose response, cell-based, 5-point CRC, membrane potential dye (AID 504840); type: functional
T3 sequence (Q9GZV3 whole entry): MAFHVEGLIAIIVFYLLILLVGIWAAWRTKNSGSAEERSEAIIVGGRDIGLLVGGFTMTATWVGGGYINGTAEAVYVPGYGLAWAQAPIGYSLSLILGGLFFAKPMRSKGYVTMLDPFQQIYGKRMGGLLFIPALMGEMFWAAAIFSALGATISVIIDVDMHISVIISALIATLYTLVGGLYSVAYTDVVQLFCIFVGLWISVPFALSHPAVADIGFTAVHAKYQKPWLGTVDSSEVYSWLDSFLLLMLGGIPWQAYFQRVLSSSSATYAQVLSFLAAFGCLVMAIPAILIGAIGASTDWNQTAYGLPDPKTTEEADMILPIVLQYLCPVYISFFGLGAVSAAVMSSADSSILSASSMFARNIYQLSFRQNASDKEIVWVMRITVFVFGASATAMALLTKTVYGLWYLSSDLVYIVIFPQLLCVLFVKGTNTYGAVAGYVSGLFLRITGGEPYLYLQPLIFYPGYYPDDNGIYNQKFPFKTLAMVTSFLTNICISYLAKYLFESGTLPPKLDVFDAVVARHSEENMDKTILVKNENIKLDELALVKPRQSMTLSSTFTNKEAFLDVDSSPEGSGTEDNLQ

HEK293 = assay: inhibitors of LMP1-driven NF-kB reporter, dose response, cell-based, HEK293, luciferase, cherry-pick (AID 588343); type: functional; conditions: Homo sapiens
[14] = intracellular Trypanosoma cruzi inhibitors in host cells – cell-based, plate reader, cherry-pick samples, set 3, dose response (AID 651818); type: functional;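 further: compounds incubated with infected cells for about four days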
[15] = Luminescence Cell-Based Dose Retest to Confirm Inhibitors of Cancer Stem Cells. [Related pubchem assays (depositor defined):AID2717, AID2721]; type: functional; conditions: Homo sapiens
[16] = inhibitors of intracellular T. cruzi replication, confirmation, NIH3T3 host cells, beta-gal luminescence (AID 2044); type: functional, cell-based;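 further: intracellular parasites grown in NIH/3T3 mouse fibroblasts as host cells; luminescent beta-galactosidase reporter signal from transgenic T. cruzi replicating inside host cells; inhibitors lower the luminescence signal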
[17] = cytotoxicity toward NIH3T3 fibroblasts, dose response, counter-screen, cell-based, ATP luminescence, mouse fibroblasts (AID 2010); type: functional;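 further: cells exposed to compound for about 90 hours before reading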
[18] = target: T4, Heat shock factor protein 1 (Mus musculus, UniProt P38532); assay: inhibition of MG132-induced HSE-luciferase signal, confirmation, cell-based, NIH3T3, luminescence, dose retest (AID 2382); type: functional;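 further: NIH3T3 fibroblasts with HSF1-driven luciferase reporter stressed by proteasome inhibitor MG132; luminescence from HSF1-driven luciferase expression after 8 hours of MG132 stress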
T4 sequence (P38532 whole entry): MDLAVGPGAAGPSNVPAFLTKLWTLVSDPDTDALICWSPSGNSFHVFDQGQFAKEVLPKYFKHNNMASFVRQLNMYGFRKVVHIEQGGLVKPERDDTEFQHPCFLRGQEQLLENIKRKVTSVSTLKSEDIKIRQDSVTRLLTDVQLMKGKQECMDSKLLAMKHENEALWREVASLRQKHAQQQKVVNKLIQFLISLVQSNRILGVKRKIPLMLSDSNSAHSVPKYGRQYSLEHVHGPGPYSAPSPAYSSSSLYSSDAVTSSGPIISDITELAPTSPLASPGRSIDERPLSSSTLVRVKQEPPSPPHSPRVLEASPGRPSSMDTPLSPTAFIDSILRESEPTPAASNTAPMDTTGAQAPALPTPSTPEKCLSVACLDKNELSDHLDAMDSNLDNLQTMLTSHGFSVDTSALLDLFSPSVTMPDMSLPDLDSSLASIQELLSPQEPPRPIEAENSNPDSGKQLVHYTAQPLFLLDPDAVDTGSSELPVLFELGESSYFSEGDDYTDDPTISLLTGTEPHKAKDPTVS

[19] = Luminescence Cell-Based Dose Response HTS to Identify Inhibitors of 5'UTR Stem-Loop Driven Prion Protein mRNA Translation in H4 Neuroglioblastoma Cells. [Related pubchem assays: 1827 (Project Summary), 1813 (Primary HTS)]; type: functional
[20] = inhibitors of firefly luciferase expression or activity, dose response, H4 neuroglioma cells, luminescence (AID 1990); type: functional, cell-based
[21] = inhibitors of SNCA 5'UTR-driven reporter translation, confirmation, H4 neuroglioma cells, luminescence (AID 1988); type: functional, cell-based

Nuclear receptor subfamily 5 group A member 2, sequence (O00482 whole entry): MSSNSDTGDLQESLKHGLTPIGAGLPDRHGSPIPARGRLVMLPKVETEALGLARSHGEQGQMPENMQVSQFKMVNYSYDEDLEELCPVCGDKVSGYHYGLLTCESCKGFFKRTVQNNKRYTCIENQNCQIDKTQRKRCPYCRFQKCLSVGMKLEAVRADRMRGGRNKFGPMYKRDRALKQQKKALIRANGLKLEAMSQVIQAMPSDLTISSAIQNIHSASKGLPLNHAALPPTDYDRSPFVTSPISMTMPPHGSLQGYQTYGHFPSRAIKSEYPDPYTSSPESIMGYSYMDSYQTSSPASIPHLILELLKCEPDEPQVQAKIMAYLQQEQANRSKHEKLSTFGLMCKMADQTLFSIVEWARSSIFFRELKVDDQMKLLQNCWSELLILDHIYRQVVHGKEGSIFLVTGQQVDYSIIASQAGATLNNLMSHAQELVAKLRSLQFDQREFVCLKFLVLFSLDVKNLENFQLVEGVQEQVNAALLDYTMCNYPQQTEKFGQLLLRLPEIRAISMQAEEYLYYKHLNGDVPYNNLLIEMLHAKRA
Steroidogenic factor 1, sequence (Q13285 whole entry): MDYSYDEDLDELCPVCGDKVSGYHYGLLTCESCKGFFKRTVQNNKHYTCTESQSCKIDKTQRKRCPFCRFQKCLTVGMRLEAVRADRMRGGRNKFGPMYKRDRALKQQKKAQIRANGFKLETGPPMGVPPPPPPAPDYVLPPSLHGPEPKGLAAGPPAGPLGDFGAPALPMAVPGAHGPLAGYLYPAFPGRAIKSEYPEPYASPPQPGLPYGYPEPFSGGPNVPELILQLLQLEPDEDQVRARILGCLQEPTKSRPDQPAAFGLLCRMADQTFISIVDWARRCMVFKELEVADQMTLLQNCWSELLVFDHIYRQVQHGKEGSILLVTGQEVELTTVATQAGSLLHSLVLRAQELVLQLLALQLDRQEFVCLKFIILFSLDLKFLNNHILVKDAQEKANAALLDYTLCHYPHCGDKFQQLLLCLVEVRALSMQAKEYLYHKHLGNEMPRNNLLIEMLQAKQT
Luciferin 4-monooxygenase, sequence (P08659 whole entry): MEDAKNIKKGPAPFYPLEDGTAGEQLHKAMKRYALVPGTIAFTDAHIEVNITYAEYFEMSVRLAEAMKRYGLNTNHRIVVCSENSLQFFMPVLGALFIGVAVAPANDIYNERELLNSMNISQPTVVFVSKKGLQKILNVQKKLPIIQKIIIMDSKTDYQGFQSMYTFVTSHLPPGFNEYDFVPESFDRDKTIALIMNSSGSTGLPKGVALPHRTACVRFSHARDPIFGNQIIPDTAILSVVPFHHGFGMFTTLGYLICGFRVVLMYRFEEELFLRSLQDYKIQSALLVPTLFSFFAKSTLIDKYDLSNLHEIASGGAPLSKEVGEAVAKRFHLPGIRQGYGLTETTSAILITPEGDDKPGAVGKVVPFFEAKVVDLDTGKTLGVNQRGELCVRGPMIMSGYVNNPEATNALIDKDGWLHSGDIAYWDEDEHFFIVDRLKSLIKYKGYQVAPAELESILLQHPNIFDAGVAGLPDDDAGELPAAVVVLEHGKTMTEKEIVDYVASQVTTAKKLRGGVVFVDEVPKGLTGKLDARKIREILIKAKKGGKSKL

Compound: COc1cc(C(=O)NCC(=O)N/N=C/c2ccc(-c3cccc([N+](=O)[O-])c3)o2)cc(OC)c1OC
- IC50 (H9c2): 10.6 µM (active)

Compound: COc1cc2c(cc1OC)C(/C=C(\O)c1ccc([N+](=O)[O-])c(C)c1)=NCC2
- EC50 [1]: 43.8 µM (inactive)
- EC50 [2]: > 99 µM (inactive)

Compound: CO[C@H]1CN(C)C(=O)c2cc(NC(=O)C3CC3)ccc2OC[C@H](C)N(Cc2cc(F)ccc2F)C[C@H]1C
- AC50 [3]: 45.2 µM (active)
- AC50 [4]: 2.14 µM (active)
- AC50 [5]: 1.35 µM (active)
- AC50 [6]: 1.99 µM (active)
- AC50 [7]: 4.89 µM (active)

Compound: OC[C@@H]1[C@@H](c2ccccc2)C2(CN(Cc3ccccc3F)C2)N1Cc1ccccc1F
- AC50 [3]: 35.8 µM (active)
- AC50 [5]: 1.65 µM (active)
- AC50 [6]: 1.94 µM (active)
- AC50 [7]: 2.31 µM (active)

Compound: CCc1cc(=O)oc2c(C)c(OCC(=O)NC3CC(C)(C)NC(C)(C)C3)ccc12
- IC50 (Steroidogenic factor 1): 1.82 µM (active)
- IC50 [8]: 35.9 µM (inactive)
- IC50 [9]: 35.9 µM (inactive)
- EC50 [10]: > 112 µM (not active)
- EC50 [11]: > 112 µM (not active)

Compound: Cc1cc(C)c2sc(N(CCCN(C)C)C(=O)CN3C(=O)c4ccccc4C3=O)nc2c1
- AC50 [12]: 9.02 µM (active)

Compound: CCCCN(CCCC)CCNC(=O)c1cn(C)c2ccc(S(=O)(=O)N(C)C3CCCCC3)cc2c1=O
- IC50 [13]: 15.6 µM (active)

Compound: OC(CN1CCCCC1)Cn1c2ccccc2c2cc(Br)ccc21 (configuration not stated)
- AC50 [12]: 19 µM (active)

Compound: CCOc1ccc(OCc2cccc(C(=O)N3CCCC3)c2)cc1
- AC50 (HEK293): 4.43 µM (active)

Compound: COc1ccccc1Nc1nc2ccc(C)cc2cc1C#N
- EC50 [1]: 58.3 µM (inactive)
- EC50 [2]: > 99 µM (inactive)

Compound: C[C@H](CO)N1C[C@H](C)[C@H](CN(C)C(=O)Nc2ccccc2)Oc2ncc(C#Cc3ccc(C(F)(F)F)cc3)cc2C1=O
- AC50 [14]: 1.37 µM (active)

Compound: Cc1ccc(NC(=O)c2[nH]cnc2C(=O)NCCCNC(=O)c2nc[nH]c2C(=O)Nc2ccc(C)cc2)cc1
- IC50 (H9c2): > 79 µM (inactive)
- AC50 [15]: 3.39 µM (active)

Compound: Cc1noc(C)c1S(=O)(=O)Nc1ccc2c(c1)CC(=O)N([C@H](C)CO)C[C@@H](C)[C@@H](CN(C)Cc1ccc(Cl)c(Cl)c1)O2
- AC50 [14]: 6.96 µM (active)

Compound: Cc1ccccc1Nc1nc(-c2cccnc2)nc2ccccc12
- IC50 (Steroidogenic factor 1): 12.6 µM (inactive)
- IC50 [8]: 15.5 µM (inactive)
- EC50 [16]: 0.741 µM (active)
- IC50 [9]: 24.9 µM (inactive)
- EC50 [17]: > 60 µM (inconclusive)

Compound: CCCc1cc(=O)oc2cc(C)cc(OCC(=O)Nc3ccccn3)c12
- IC50 (Steroidogenic factor 1): 0.802 µM (active)
- IC50 [8]: 3.99 µM (active)
- IC50 [9]: 35.9 µM (inactive)

Compound: CC(=O)Nc1cc(Cl)c(/N=C/c2ccc(O)cc2O)cc1Cl
- EC50 [1]: > 99 µM (inactive)
- EC50 [2]: > 99 µM (inactive)

Compound: Nc1ccc(C(=O)NN2C(=O)[C@H](Cl)C2c2ccc(Cl)cc2)cc1 (some centres not stated)
- IC50 (Steroidogenic factor 1): 11.7 µM (inactive)
- IC50 [8]: 11.9 µM (inactive)
- IC50 [9]: 28.8 µM (inactive)

Compound: CC(=O)c1cccc(NC(=O)Nc2ccc(C(=O)N3CCOCC3)cc2)c1
- AC50 (HEK293): 31.8 µM (active)

Compound: C[C@@H]1CCCCO[C@@H](CN(C)Cc2ccc(Cl)c(Cl)c2)[C@@H](C)CN([C@H](C)CO)C(=O)c2cc(NS(=O)(=O)c3ccc(Cl)cc3)ccc2O1
- AC50 [14]: 6.5 µM (active)

Compound: CCc1cc(=O)oc2cc(C)cc(OCC(=O)NC3CC3)c12
- IC50 (Steroidogenic factor 1): 0.359 µM (active)
- IC50 [8]: 0.292 µM (active)
- IC50 [9]: 35.9 µM (inactive)

Compound: CNS(=O)(=O)c1ccc2nc(NC(=O)/C=C/c3ccco3)sc2c1
- IC50 (H9c2): > 79 µM (inactive)

Compound: Cc1c(C(=O)C2=C(O)C(=O)N(CCN3CCOCC3)C2c2ccccn2)cnn1-c1ccccc1 (configuration not stated)
- AC50 (HEK293): 2.31 µM (active)
- EC50 [18]: 1.29 µM (active)

Compound: CN(C)/C=c1\sc2c(C#N)cc(C(=O)c3ccc(Br)cc3)n2c1=O
- EC50 [1]: 22.3 µM (inactive)
- EC50 [2]: > 99 µM (inactive)

Compound: COc1ccc(/C=N/NC(=O)c2cccnc2)cc1CSc1nc2ccccc2s1
- IC50 (H9c2): 21.2 µM (active)

Compound: COCCn1c(C)cc(C(=O)COC(=O)c2[nH]nc3ccccc23)c1C
- AC50 (HEK293): 2.08 µM (active)
- EC50 [19]: 4.02 µM (active)
- EC50 [20]: 4.23 µM (inconclusive)
- EC50 [21]: 1.58 µM (active)

Compound: Cn1c(/C=C/c2ccccc2[N+](=O)[O-])nc2ccccc2c1=O
- EC50 [1]: > 99 µM (inactive)
- EC50 [2]: > 99 µM (inactive)

Compound: Cc1ccc(N/C=C2/C(=O)N(c3nccs3)C(=O)c3ccccc32)c(C)c1
- EC50 [1]: > 99 µM (inactive)
- EC50 [2]: > 99 µM (inactive)

Compound: C[C@H]1CN([C@@H](C)CO)C(=O)Cc2cc(NC(=O)Nc3ccc(C(F)(F)F)cc3)ccc2O[C@H]1CN(C)Cc1ccc(C(F)(F)F)cc1
- AC50 [14]: 4.47 µM (active)

Compound: C[C@@H]1CN([C@H](C)CO)C(=O)Cc2cc(NC(=O)Nc3ccc(C(F)(F)F)cc3)ccc2O[C@@H]1CN(C)Cc1ccc(C(F)(F)F)cc1
- AC50 [14]: 1.19 µM (active)

Compound: CCN(CC)c1ccc(C(=O)NNC(=O)CCc2nc(O)c3ccccc3n2)cc1
- IC50 (H9c2): 18 µM (active)
